Results on one compound are retold here after US20240115670A1, “FIBROBLAST ACTIVATION PROTEIN MODULATION TO ALTER IMMUNE CELL MIGRATION AND TUMOR INFILTRATION” (Georgetown University, priority 2021, published 2024).

For one experiment, the target named is T1, DPPIV (Homo sapiens, UniProt P27487).
T1 construct: purchased R&D systems 9168-SE
The experiment is described as follows: Fluorescent peptide dipeptidyl peptidase activity assay. Type of experiment: biochemical. To be noted: fluorescent peptide substrate. The method, then:
(§1) 100 mM stock of dipeptidyl peptidase substrate (Acetyl-Aka-Gly-Pro-AFC) (Anaspec, cat #AS-24126) was made by resuspending lyophilized substrate in DMSO. On the day of the assay, substrate stock was then diluted 1:1000 in activity assay buffer (50 mM Tris, 1 M NaCl, 1 mg/mL BSA, pH 7.5). A standard curve was generated using rFAP (R&D systems, cat #3715-SE-010) or rDPP4 (R&D systems, cat #9168-SE) and 50 uL of recombinant protein plus 50 uL of substrate was added to each well of a 96 Well Flat Clear Bottom White Polystyrene TC-Treated Microplates (Corning, cat #3903). The plate was incubated for 30 minutes at 37° C. then read on a PerkinElmer EnVision Multimode Plate Reader with 390-400 nm excitation and […] emission wavelengths. To test tumor lysates, 50-100 mg of snap frozen tumors were homogenized in 100-300 uL activity assay buffer using a Kimble Biomasher II closed system tissue grinder (DWK Life Sciences, cat #749625-0020). Protein concentration was determined using Bio-rad protein concentration DC Protein Assay Kit II (Bio-rad, cat #5000112). All samples were diluted to equal protein concentrations using activity assay buffer then added at 50 uL plus 50 uL substrate per well. Final concentration of FAP per well was calculated using the standard curve. Data were compiled and assessed for significance using GraphPad Prism 9 for an unpaired, two-tailed t-test.

Experiment [1] has as its target T2, FAP (Homo sapiens, UniProt Q12884).
T2 construct: purchased R&D systems 3715-SE-010
Described as above. The settings on record: fluorescent peptide substrate. Format: biochemical. Here is the method:
as §1

The next experiment concerns PANC-1 cell clusters. The experiment is described as follows: NK cell lysis of PANC-1 clusters in 3D matrix (cleaved caspase 3). Type of experiment: cell-based, human. The settings on record: 10 uM Cpd60. The method, then: 3D clusters were generated, embedded and stained as previously described. In brief, clusters were generated by plating 1,000 cells per well into 96-well Nunclon Sphera low adhesion plates (Thermo Scientific, cat #174925) and incubated overnight at 37° C. The following day, 6 clusters were embedded into an ECM containing 2,000 NK cells and plated into one well of a Nunc Lab-Tek II 8-well chamber slide (ThermoScientific, cat #154534PK). The ECM mixture consisted of 20% growth factor reduced Matrigel (Corning, 10-12 mg/ml stock concentration, #354230) and 80% rat tail collagen type I at 3 mg/mL (gibco, A1048301). Cells were either imaged for the following 24 hours every 30 minutes using the Zeiss LSM800 scanning confocal microscope or allowed to incubate overnight at 37° C. After 24 hours, cells in matrix were fixed with 5.4% formalin for 1 hour, permeabilized with 0.5% Triton-X and blocked using goat serum. For invasion assays, NK-92-GFP cells were stained with anti-GFP (ThermoFisher, cat #A-11122). For the cell lysis assays clusters were stained using anti-cleaved caspase 3 (Cell Signaling, cat #9661). Hoechst 33342, phalloidin, and secondary antibodies labeled with Alexa Fluor 488 nm, 546 nm, 647 nm, or 680 nm (Invitrogen) were used.
3D clusters were generated, embedded and stained as previously described (34, 35). […]

Experiment [2] relates to FAP. The settings on record: mouse, in vivo; cited from earlier work.
The next experiment deals with NK92-GFP cells. As to the kind of experiment: NK92-GFP extravasation from zebrafish blood vessels. Type of experiment: in vivo. The settings on record: fish bathed in 10 uM Cpd60 vs vehicle; 1 hour after injection. The method, then: The zebrafish embryos were anesthetized with 0.0003016% tricaine (Pentair Aquatic Eco-Systems, Sigma-Aldrich, St. Louis, MO, USA) in the Georgetown-Lombardi Animal Shared Resource and positioned within our zebrafish stereotax on a proprietary microinjection plate. NK92-GFP cells were injected into the pericardium using an air driven Picospritzer Ha microinjector (General Valve/Parker Hannifin) under a stereoscope. After transplantation, embryos were allowed to recover for 1 hour at 33° C. Confocal imaging was performed on an Olympus IX-71 inverted microscope with a color CCD camera in the Georgetown-Lombardi Microscopy Shared Resource. Fluorescent imaging was performed on Keyence BZ-X. Images were taken at 10× across multiple z-stacks. […] NK extravasation quantification was performed by counting the number of GFP cells outside red vasculature. NK extravasation quantification was performed blinded to the treatment conditions. […]
Zebrafish studies were conducted in accordance with NIH guidelines for the care and use of laboratory animals and were approved by the Georgetown University Institutional Animal Care and Use Committee. […] NK extravasation quantification was performed by counting the number of GFP cells outside red vasculature. NK extravasation quantification was performed blinded to the treatment conditions. […]

SMILES strings stand for the structures. “Also recorded” adds a separate entry of the source.

T2 sequence (Q12884 whole entry): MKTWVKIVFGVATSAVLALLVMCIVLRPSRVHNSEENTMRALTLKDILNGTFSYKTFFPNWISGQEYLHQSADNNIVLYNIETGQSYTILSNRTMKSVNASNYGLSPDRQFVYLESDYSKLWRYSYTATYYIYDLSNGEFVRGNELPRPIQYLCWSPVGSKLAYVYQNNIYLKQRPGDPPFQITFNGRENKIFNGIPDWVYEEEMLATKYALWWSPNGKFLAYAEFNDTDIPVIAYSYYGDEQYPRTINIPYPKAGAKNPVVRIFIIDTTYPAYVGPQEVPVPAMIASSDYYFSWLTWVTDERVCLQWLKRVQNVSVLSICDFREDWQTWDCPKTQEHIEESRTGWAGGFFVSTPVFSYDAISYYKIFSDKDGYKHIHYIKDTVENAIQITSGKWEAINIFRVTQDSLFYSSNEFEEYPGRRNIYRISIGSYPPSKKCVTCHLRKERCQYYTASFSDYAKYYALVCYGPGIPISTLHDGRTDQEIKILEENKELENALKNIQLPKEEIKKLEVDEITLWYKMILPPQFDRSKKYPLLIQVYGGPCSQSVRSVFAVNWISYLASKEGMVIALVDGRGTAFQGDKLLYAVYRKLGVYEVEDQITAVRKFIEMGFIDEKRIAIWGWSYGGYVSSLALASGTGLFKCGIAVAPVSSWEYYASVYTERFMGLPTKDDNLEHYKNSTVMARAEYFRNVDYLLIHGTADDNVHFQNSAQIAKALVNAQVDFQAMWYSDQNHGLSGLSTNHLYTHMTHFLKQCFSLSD
T1 sequence (P27487 whole entry): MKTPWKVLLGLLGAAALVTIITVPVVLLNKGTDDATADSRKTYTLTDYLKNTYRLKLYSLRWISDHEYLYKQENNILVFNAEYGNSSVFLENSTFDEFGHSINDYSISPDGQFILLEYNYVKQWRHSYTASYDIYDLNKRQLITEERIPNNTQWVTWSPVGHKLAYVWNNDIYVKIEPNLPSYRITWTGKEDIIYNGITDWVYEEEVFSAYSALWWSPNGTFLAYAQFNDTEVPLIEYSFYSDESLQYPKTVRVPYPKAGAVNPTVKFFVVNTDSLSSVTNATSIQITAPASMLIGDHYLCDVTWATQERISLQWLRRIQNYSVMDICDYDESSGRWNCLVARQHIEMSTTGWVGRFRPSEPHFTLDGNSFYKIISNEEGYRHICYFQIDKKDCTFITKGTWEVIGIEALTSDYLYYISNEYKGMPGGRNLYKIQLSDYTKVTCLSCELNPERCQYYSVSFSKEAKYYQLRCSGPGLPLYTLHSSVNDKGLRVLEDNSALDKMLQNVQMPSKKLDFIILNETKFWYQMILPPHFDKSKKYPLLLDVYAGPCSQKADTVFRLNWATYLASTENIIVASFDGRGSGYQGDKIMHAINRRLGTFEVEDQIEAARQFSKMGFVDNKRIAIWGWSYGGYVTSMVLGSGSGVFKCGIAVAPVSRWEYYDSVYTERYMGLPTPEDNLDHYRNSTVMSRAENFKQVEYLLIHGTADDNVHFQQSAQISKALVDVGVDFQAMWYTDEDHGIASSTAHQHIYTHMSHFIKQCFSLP

As to `N#C[C@@H]1CC(F)(F)CN1C(=O)CNC(=O)c1ccnc2ccccc12` [Cpd60], the “inhibition of DPPIV dipeptidyl peptidase activity” value at DPPIV was “but not FAP's most closely related protein, DPPIV; also recorded: not DPPIV”. Moreover, on FAP [1], the “inhibition of FAP dipeptidyl peptidase activity” value is “inhibits FAP”. In addition, the “PANC-1 cell apoptosis (cleaved caspase 3) in 3D cultures with NK92” value in the experiment on PANC-1 cell clusters (NK92 cells) is “significantly reduced”. The “donor NK cell lysis of PANC-1 cells in 3D” value with PANC-1 cell clusters (NK cells from two donors, normalized to cluster area) was “reduced”. In the experiment on FAP [2], the “FAP inhibition in murine models” value was “selectively and completely inhibits FAP”. In addition, in the experiment on NK92-GFP cells, the “NK cell extravasation from the blood vessels” value is “significantly reduced”.
